ChEMBL document CHEMBL5465560, “Selectivity Literature for EUbOPEN Chemogenomic Library” (2024)

Experiments:
[1] = target: T1, Protein kinase C zeta type (Homo sapiens) (UniProt Q05513); test: Selectivity interaction (Millipore kinase profiler) EUB0000124b PRKCZ; conditions: at 10 µM
T1 sequence (whole entry): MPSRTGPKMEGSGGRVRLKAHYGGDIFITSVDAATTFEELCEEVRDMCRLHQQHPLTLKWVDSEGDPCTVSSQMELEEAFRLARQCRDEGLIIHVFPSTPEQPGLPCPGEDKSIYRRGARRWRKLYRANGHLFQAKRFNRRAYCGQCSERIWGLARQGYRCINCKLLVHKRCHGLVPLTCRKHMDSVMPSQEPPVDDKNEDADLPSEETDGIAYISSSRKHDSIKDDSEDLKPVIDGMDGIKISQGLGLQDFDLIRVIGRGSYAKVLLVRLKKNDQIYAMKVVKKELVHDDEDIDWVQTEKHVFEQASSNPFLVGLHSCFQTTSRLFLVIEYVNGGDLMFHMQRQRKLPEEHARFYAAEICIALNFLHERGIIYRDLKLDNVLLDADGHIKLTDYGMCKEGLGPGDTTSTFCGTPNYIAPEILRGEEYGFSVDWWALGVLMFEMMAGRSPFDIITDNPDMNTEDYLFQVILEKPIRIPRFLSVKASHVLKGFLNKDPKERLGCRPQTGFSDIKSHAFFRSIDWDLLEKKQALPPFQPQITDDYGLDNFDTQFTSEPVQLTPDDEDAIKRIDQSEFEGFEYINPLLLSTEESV

[2] = target: T2, Serine/threonine-protein kinase STK11 (Homo sapiens) (UniProt Q15831); test: Selectivity interaction (Kinase panel (literature)) EUB0001199aCl STK11; conditions: at 1 µM
T2 sequence (whole entry): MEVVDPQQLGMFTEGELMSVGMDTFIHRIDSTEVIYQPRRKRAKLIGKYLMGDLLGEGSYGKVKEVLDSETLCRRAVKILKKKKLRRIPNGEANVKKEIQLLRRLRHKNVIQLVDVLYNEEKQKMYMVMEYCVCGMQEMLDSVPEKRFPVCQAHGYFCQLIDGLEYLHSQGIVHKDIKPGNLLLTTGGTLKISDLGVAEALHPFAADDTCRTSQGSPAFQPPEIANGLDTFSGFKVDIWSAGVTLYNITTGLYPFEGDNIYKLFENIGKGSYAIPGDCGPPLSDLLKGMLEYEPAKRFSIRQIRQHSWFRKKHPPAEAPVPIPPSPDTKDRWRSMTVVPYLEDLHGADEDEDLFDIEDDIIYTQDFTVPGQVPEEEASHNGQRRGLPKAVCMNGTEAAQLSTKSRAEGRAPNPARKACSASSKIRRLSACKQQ

[3] = target: AP2-associated protein kinase 1 (Homo sapiens, UniProt Q2M2I8); test: Selectivity interaction (KinomeScan (DiscoverX)) EUB0001079a AAK1; conditions: at 1 µM
[4] = target: Interferon-induced, double-stranded RNA-activated protein kinase (Homo sapiens) (UniProt P19525); test: Selectivity interaction (KinomeScan (DiscoverX)) EUB0000699a EIF2AK2; conditions: at 10 µM
[5] = target: Casein kinase II subunit alpha (Homo sapiens, UniProt P68400); test: Selectivity interaction (ActivX KiNativ screen (kinase selectivity in THP-1 cell lysates)) EUB0000639a CSNK2A1; type: subcellular; conditions: lysate
[6] = target: Dual specificity mitogen-activated protein kinase kinase 1 (Homo sapiens, UniProt Q02750); test: Selectivity interaction (Kinase panel (Invitrogen)) EUB0000639a MAP2K1; conditions: at 200 nM
SRSF protein kinase 1 = SRSF protein kinase 1 (Homo sapiens, UniProt Q96SB4); test: Selectivity interaction (ActivX KiNativ screen (kinase selectivity in THP-1 cell lysates)) EUB0000639a SRPK1; type: subcellular; conditions: lysate, at 5 µM
[7] = target: Fibroblast growth factor receptor 1 (Homo sapiens, UniProt P11362); test: Selectivity interaction (KinomeScan (DiscoverX)) EUB0000595a FGFR1; conditions: at 10 µM
[8] = target: Phosphatidylinositol 4-kinase beta (Homo sapiens, UniProt Q9UBF8); test: Selectivity interaction (KinomeScan (DiscoverX)) EUB0000595a PI4KB; conditions: at 10 µM
[9] = target: Serine/threonine-protein kinase N2 (Homo sapiens, UniProt Q16513); test: Selectivity interaction (Kinase screening (Upstate/Millipore)) EUB0000604a PKN2
[10] = target: T3, Non-receptor tyrosine-protein kinase TNK1 (Homo sapiens) (UniProt Q13470); test: Selectivity interaction (KinomeScan (DiscoverX)) EUB0000045b TNK1
T3 sequence (whole entry): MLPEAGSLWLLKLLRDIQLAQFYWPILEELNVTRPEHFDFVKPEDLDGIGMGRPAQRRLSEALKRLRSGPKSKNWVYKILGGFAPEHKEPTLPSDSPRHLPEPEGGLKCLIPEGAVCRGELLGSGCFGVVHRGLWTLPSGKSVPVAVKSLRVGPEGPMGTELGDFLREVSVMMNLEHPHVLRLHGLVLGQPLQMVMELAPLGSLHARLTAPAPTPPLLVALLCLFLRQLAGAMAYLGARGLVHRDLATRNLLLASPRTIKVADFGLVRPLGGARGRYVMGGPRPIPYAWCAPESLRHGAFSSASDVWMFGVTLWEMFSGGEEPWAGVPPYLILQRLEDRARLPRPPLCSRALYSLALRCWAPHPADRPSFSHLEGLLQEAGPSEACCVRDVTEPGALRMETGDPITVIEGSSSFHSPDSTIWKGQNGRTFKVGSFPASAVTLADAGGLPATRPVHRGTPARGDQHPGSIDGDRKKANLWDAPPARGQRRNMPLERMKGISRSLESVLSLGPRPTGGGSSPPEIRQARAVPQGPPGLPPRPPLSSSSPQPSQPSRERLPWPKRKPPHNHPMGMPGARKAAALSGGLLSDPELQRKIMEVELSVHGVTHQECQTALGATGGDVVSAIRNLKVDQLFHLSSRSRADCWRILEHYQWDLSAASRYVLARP

[11] = target: Dual specificity protein kinase CLK1 (Homo sapiens, UniProt P49759); test: Selectivity interaction (KinomeScan (DiscoverX)) EUB0000618a CLK1; conditions: at 10 µM
[12] = target: Protein kinase C theta type (Homo sapiens, UniProt Q04759); conditions: at 10 µM
[13] = target: Citron Rho-interacting kinase (Homo sapiens) (UniProt O14578); test: Selectivity interaction (KinomeScan (DiscoverX)) EUB0000607a CIT; conditions: at 10 µM

Chain of Casein kinase II subunit alpha (P68400 whole entry, looked up): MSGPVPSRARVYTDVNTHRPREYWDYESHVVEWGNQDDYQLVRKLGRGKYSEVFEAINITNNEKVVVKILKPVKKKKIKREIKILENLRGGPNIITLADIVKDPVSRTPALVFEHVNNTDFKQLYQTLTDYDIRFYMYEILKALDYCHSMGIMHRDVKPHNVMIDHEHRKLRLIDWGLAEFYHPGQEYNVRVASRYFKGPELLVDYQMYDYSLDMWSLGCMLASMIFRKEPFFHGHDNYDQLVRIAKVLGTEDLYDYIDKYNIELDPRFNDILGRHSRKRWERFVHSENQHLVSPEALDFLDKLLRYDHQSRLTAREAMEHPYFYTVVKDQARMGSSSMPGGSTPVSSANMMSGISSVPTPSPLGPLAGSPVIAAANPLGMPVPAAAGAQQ
Chain of Fibroblast growth factor receptor 1 (P11362 22-822 limits assumed): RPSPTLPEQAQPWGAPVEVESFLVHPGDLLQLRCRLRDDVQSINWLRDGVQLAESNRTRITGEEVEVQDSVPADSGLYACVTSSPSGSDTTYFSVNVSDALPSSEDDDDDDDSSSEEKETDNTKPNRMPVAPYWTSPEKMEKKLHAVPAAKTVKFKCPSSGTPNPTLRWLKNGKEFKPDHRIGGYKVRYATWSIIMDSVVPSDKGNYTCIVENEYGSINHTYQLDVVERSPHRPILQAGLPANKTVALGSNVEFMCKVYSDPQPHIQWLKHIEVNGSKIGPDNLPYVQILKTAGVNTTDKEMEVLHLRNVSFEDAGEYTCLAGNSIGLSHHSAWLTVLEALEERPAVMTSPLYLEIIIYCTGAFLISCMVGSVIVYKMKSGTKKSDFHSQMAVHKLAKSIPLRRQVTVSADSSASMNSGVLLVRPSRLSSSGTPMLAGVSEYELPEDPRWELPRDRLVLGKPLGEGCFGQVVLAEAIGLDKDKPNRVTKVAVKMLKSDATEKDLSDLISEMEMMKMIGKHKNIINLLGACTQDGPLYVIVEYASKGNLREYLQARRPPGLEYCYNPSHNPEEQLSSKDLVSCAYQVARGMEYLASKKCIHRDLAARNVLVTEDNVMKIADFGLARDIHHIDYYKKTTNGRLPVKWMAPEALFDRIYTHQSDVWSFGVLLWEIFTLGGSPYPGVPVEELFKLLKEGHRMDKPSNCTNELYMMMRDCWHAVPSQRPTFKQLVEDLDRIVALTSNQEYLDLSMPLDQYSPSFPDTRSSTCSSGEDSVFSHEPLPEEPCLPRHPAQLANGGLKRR
Chain of AP2-associated protein kinase 1 (Q2M2I8 whole entry, looked up): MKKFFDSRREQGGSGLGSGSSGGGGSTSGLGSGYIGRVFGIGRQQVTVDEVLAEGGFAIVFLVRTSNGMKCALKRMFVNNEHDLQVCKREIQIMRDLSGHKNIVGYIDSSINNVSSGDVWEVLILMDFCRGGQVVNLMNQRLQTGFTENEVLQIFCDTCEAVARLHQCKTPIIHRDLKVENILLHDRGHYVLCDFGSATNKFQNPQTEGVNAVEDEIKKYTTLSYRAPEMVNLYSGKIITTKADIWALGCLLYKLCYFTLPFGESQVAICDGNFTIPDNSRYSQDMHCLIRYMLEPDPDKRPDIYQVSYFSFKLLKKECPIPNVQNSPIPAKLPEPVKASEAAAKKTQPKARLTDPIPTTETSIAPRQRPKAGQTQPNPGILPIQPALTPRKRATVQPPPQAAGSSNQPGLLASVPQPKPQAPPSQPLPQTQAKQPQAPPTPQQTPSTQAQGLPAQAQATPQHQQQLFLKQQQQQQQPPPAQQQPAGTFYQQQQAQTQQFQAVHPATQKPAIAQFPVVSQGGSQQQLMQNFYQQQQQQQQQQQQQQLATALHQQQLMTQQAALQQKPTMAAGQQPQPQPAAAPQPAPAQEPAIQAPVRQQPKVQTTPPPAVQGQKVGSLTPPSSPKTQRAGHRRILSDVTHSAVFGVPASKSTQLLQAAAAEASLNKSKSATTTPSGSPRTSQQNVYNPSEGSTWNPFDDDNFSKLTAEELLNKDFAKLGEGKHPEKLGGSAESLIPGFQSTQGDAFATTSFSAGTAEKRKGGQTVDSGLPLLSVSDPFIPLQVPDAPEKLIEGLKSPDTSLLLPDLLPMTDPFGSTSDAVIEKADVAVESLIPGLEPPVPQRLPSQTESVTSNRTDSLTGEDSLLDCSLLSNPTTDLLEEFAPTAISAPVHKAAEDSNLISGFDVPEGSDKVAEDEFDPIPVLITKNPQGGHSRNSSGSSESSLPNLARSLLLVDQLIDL
Chain of Serine/threonine-protein kinase N2 (Q16513 whole entry, looked up): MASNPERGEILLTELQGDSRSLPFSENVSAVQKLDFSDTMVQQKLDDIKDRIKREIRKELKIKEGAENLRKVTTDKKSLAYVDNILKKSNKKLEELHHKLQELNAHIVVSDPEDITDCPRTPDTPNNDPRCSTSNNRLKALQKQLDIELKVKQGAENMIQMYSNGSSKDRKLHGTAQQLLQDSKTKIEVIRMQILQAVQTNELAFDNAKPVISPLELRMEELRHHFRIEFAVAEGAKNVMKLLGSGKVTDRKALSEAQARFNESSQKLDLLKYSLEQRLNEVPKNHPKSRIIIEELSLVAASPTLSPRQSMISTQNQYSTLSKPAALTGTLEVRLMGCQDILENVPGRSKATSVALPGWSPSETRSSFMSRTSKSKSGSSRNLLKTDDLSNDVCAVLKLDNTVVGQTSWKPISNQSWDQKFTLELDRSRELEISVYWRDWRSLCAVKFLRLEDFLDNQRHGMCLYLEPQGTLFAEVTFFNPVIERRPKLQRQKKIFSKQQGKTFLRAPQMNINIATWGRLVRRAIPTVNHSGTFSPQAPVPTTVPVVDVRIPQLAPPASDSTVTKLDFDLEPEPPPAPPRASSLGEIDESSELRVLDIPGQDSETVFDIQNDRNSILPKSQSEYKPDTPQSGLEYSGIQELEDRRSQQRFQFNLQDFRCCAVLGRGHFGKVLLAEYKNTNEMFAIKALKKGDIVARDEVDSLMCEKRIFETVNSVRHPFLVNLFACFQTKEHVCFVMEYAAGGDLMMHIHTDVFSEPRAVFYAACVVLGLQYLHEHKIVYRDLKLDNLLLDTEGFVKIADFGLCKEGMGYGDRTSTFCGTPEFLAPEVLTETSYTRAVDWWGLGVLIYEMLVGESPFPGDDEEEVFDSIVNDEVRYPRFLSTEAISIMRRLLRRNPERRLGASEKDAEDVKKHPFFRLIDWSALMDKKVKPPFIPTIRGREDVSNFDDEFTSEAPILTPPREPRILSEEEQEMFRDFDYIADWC
Chain of Dual specificity mitogen-activated protein kinase kinase 1 (Q02750 whole entry): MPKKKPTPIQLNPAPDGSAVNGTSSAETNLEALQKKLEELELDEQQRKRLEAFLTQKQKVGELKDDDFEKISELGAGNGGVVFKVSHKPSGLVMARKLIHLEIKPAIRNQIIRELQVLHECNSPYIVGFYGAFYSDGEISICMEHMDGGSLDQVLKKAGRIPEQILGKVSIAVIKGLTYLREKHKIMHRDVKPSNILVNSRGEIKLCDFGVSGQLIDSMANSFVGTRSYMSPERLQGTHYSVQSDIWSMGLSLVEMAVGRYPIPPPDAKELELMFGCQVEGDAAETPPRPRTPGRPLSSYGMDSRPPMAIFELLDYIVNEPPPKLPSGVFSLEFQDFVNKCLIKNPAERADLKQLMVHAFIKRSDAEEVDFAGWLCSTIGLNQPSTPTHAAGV
Chain of SRSF protein kinase 1 (Q96SB4 whole entry): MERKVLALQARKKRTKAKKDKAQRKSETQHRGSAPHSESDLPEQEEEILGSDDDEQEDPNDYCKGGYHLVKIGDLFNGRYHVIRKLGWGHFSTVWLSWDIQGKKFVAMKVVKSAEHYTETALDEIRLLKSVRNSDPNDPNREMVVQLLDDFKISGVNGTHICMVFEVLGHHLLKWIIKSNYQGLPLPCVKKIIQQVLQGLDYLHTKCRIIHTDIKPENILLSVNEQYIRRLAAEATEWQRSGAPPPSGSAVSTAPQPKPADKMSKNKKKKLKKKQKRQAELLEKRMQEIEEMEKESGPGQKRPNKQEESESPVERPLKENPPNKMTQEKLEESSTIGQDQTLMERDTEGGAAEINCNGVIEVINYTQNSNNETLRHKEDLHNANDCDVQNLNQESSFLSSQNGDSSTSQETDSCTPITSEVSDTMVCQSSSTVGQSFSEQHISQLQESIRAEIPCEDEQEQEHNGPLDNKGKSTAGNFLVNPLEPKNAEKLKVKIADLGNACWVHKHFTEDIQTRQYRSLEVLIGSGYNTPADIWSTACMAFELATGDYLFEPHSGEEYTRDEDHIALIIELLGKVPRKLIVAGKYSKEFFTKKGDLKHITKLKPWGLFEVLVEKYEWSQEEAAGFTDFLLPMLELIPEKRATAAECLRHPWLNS
Chain of Phosphatidylinositol 4-kinase beta (Q9UBF8 2-816 limits assumed): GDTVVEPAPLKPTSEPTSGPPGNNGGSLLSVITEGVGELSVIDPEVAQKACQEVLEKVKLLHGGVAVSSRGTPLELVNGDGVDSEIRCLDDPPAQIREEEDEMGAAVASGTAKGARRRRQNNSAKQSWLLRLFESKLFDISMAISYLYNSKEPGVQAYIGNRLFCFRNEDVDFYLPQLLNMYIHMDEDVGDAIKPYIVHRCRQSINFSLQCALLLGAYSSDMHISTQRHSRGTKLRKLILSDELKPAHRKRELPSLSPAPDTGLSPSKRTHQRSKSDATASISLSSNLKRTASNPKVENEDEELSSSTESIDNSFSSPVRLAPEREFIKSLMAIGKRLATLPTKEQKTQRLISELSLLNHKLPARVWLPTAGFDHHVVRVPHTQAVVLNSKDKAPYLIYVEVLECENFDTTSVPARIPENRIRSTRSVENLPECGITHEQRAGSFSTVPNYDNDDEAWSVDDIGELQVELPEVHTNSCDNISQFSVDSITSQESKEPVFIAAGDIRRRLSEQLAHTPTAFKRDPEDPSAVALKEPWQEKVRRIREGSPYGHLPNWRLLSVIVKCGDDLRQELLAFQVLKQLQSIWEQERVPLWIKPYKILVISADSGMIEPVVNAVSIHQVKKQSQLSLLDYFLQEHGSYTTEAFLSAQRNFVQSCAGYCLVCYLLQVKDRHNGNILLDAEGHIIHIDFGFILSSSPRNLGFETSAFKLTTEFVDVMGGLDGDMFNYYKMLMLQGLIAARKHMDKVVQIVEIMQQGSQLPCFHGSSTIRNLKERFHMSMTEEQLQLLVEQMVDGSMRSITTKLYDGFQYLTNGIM

Q: Which % of control [1] does the source give for `CC(=O)Nc1cccc(-n2c(=O)n(C3CC3)c(=O)c3c(Nc4ccc(I)cc4F)n(C)c(=O)c(C)c32)c1` here?
A: 102%

Q: Which % of inhibition [2] does the source give for `CN1Cc2nccc(-c3cn(C)nc3-c3ccc(F)cc3)c2C1=O` here?
A: 3%

Q: For `Nc1cnc(N2CCc3cc(S(=O)(=O)Nc4c(F)cc(Cl)cc4F)cc(N4CCCC4=O)c32)nc1` [TP-020n], which % of control [3] is on record?
A: 100%

Q: `CCN(CC)CCCCNc1ncc2cc(-c3cc(OC)cc(OC)c3)c(NC(=O)NC(C)(C)C)nc2n1` was tested. Which % of control [4] did it give?
A: 24%

Q: Which % of inhibition ([5]; at 1 µM) does the source give for `CC[C@@H]1[C@H](F)C(=O)N[C@@H]1COc1nccc2cc(C(N)=O)c(OC)cc12` [ZIMLOVISERTIB] here?
A: 25.8%

Q: What about the % of inhibition ([5]; at 5 µM) of the same molecule?
A: -6.9%

Q: And the % of inhibition [6]?
A: 9.31%

Q: And the % of inhibition (SRSF protein kinase 1)?
A: -1.1%

Q: How did the % of control [7] turn out when `COCC(=O)NC/C=C/c1ccc2ncnc(Nc3ccc(Oc4ccc(C)nc4)c(C)c3)c2c1` [CP-724714] was run?
A: 100%

Q: What about the % of control [8] of the same molecule?
A: 100%

Q: With `Cc1cnc(Nc2ccc(F)cc2Cl)nc1-c1c[nH]c(C(=O)N[C@H](CO)c2cccc(Cl)c2)c1` as the molecule, how does the % of inhibition [9] read?
A: 14%

Q: How did the % of control ([10]; at 1 µM) turn out when `C=CC(=O)Nc1cc(-n2c(=O)ccc3cnc4ccc(-c5ccc(NS(C)(=O)=O)cc5)cc4c32)ccc1C` was run?
A: 100%

Q: What about the % of control ([10]; at 10 µM) of the same molecule?
A: 100%

Q: How did the % of control [11] turn out when `O[C@H]1CC[C@H](Nc2ncc3nc(Nc4c(F)cc(F)cc4F)n([C@H]4CCOC4)c3n2)CC1` was run?
A: 79%

Q: For `Cc1cc([C@@H](C)Nc2ccccc2C(=O)O)c2nc(N3CCOCC3)cc(=O)n2c1` [AZD-6482], which % of control [12] is on record?
A: 97%

Q: How did the % of control [13] turn out when `CNC(=O)Nc1ccc(-c2nc(N3CC4CCC(C3)O4)c3cnn(C4CCC5(CC4)OCCO5)c3n2)cc1` was run?
A: 100%
